Test results from patent US20210032257A1, “(E)-1-(4-(DIMETHYLAMINO)BUT-2-ENOYL)PYRROLIDIN-3-YL 4-((3-ISOPROPYL-5-METHYLPYRAZOLO[1,5-A]PYRIMIDIN-7-YL)AMINO)PIPERIDINE-1-CARBOXYLATE FOR INHIBITING CDK7” (Eli Lilly and Company, priority 2017, published 2021).
pIC50: −log10 of the molar value.

Assays:
Assay in all cases: Biomarker study proliferation (CellTiter-Glo)
Type in all cases: cell-based
CAOV3 = test system: CAOV3
Procedure, shortened: (§1)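 Overnight-plated cells (5000/well, 37 °C, 5% CO2) receive compound diluted through an OPTIMEM + 10% FBS intermediate plate. After one week, CellTiter-Glo is added and luminescence is read.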

SKHEP1 = test system: SKHEP1
Procedure, shortened: as §1

HCT116 = test system: HCT116
Procedure, shortened: as §1

NCIH596 = test system: NCIH596
Procedure, shortened: as §1

LNCAP = test system: LNCAP
Procedure, shortened: as §1

SNU245 = test system: SNU245
Procedure, shortened: as §1

GL261 = test system: GL261
Procedure, shortened: as §1

MKN7 = test system: MKN7
Procedure, shortened: as §1

JHH4 = test system: JHH4
Procedure, shortened: as §1

T98G = test system: T98G
Procedure, shortened: as §1

OAW42 = test system: OAW42
Procedure, shortened: as §1

UACC812 = test system: UACC812
Procedure, shortened: as §1

SNU475 = test system: SNU475
Procedure, shortened: as §1

HCC4006 = test system: HCC4006
Procedure, shortened: as §1

T47D = test system: T47D
Procedure, shortened: as §1

HCC827 = test system: HCC827
Procedure, shortened: as §1

KE97 = test system: KE97
Procedure, shortened: as §1

KYSE180 = test system: KYSE180
Procedure, shortened: as §1

HUH28 = test system: HUH28
Procedure, shortened: as §1

[1] = 168 h, read-out: Anti-proliferation effect IC50
[2] = Homo sapiens, 168 h, read-out: Anti-proliferation effect IC50

## Cc1cc(NC2CCN(C(=O)O[C@H]3CCN(C(=O)/C=C/CN(C)C)C3)CC2)n2ncc(C(C)C)c2n1 [Example 1, [(3S)-1-[(E)-4-(dimethylamino)but-2-enoyl]pyrrolidin-3-yl] 4-[(3-isopropyl-5-methyl-pyrazolo[1,5-a]pyrimidin-7-yl)amino]piperidine-1-carboxylate]
CAOV3; CAOV3, OVARY, 7 days
  Anti-proliferation effect % Inh.: 96%
  Anti-proliferation effect Outcome: Cytotoxic (cytotoxic (IC50<1 μM and % inhibition ≥70%))
CAOV3; Homo sapiens, Caov-3, 168 h, read-out: Anti-proliferation effect IC50
  pIC50: 7.72
SKHEP1; Homo sapiens, SK-HEP1, 168 h, read-out: Anti-proliferation effect IC50
  pIC50: 6.93
SKHEP1; SKHEP1, LIVER, 7 days
  Anti-proliferation effect % Inh.: 71%
  Anti-proliferation effect Outcome: Cytotoxic (cytotoxic (IC50<1 μM and % inhibition ≥70%))
HCT116; HCT116, INTESTINE, 7 days
  Anti-proliferation effect % Inh.: 88%
  Anti-proliferation effect Outcome: Cytotoxic (cytotoxic (IC50<1 μM and % inhibition ≥70%))
HCT116; Homo sapiens, HCT-116, 168 h, read-out: Anti-proliferation effect IC50
  pIC50: 7.39
NCIH596; Homo sapiens, NCI-H596, 168 h, read-out: Anti-proliferation effect IC50
  pIC50: 6.04
NCIH596; NCIH596, LUNG, 7 days
  Anti-proliferation effect % Inh.: 46%
  Anti-proliferation effect Outcome: Cytostatic (cytostatic (IC50<1 μM and % inhibition <70%))
LNCAP; Homo sapiens, LNCaP, 168 h, read-out: Anti-proliferation effect IC50
  pIC50: 7.23
LNCAP; LNCAP, PROSTATE, 7 days
  Anti-proliferation effect % Inh.: 74%
  Anti-proliferation effect Outcome: Cytotoxic (cytotoxic (IC50<1 μM and % inhibition ≥70%))
SNU245; [1]
  pIC50: 5.96
SNU245; SNU245, BILIARY, 7 days
  Anti-proliferation effect % Inh.: −5%
  Anti-proliferation effect Outcome: Insensitive (insensitive (IC50≥1 μM))
GL261; GL261, BRAIN, 7 days
  Anti-proliferation effect % Inh.: 85%
  Anti-proliferation effect Outcome: Cytotoxic (cytotoxic (IC50<1 μM and % inhibition ≥70%))
GL261; Mus musculus, GL261, 168 h, read-out: Anti-proliferation effect IC50
  pIC50: 7.42
MKN7; Homo sapiens, MKN-7, 168 h, read-out: Anti-proliferation effect IC50
  pIC50: < 5.00
MKN7; MKN7, STOMACH, 7 days
  Anti-proliferation effect % Inh.: 39%
  Anti-proliferation effect Outcome: Insensitive (insensitive (IC50≥1 μM))
JHH4; JHH4, LIVER, 7 days
  Anti-proliferation effect % Inh.: 65%
  Anti-proliferation effect Outcome: Cytostatic (cytostatic (IC50<1 μM and % inhibition <70%))
JHH4; JHH-4, 168 h, read-out: Anti-proliferation effect IC50
  pIC50: 6.78
T98G; CNS, 7 days
  Anti-proliferation effect % Inh.: 44%
  Anti-proliferation effect Outcome: Insensitive (insensitive (IC50≥1 μM))
T98G; [2]
  pIC50: 5.86
OAW42; Homo sapiens, OAW-42, 168 h, read-out: Anti-proliferation effect IC50
  pIC50: 6.87
OAW42; OAW42, OVARY, 7 days
  Anti-proliferation effect % Inh.: 88%
  Anti-proliferation effect Outcome: Cytotoxic (cytotoxic (IC50<1 μM and % inhibition ≥70%))
UACC812; Homo sapiens, UACC-812, 168 h, read-out: Anti-proliferation effect IC50
  pIC50: 7.12
UACC812; UACC812, BREAST, 7 days
  Anti-proliferation effect % Inh.: 58%
  Anti-proliferation effect Outcome: Cytostatic (cytostatic (IC50<1 μM and % inhibition <70%))
SNU475; Homo sapiens, SNU-475, 168 h, read-out: Anti-proliferation effect IC50
  pIC50: 5.41
SNU475; SNU475, LIVER, 7 days
  Anti-proliferation effect % Inh.: 28%
  Anti-proliferation effect Outcome: Insensitive (insensitive (IC50≥1 μM))
HCC4006; HCC4006, LUNG, 7 days
  Anti-proliferation effect % Inh.: 57%
  Anti-proliferation effect Outcome: Cytostatic (cytostatic (IC50<1 μM and % inhibition <70%))
HCC4006; Homo sapiens, HCC4006, 168 h, read-out: Anti-proliferation effect IC50
  pIC50: 7.55
T47D; BREAST, 7 days
  Anti-proliferation effect % Inh.: 68%
  Anti-proliferation effect Outcome: Cytostatic (cytostatic (IC50<1 μM and % inhibition <70%))
T47D; [2]
  pIC50: 7.35
HCC827; HCC827, LUNG, 7 days
  Anti-proliferation effect % Inh.: 69%
  Anti-proliferation effect Outcome: Cytostatic (cytostatic (IC50<1 μM and % inhibition <70%))
HCC827; Homo sapiens, HCC827, 168 h, read-out: Anti-proliferation effect IC50
  pIC50: 7.26
KE97; KE97, BLOOD, 7 days
  Anti-proliferation effect % Inh.: 58%
  Anti-proliferation effect Outcome: Cytostatic (cytostatic (IC50<1 μM and % inhibition <70%))
KE97; KE-97, 168 h, read-out: Anti-proliferation effect IC50
  pIC50: 6.80
KYSE180; Homo sapiens, KYSE-180, 168 h, read-out: Anti-proliferation effect IC50
  pIC50: 6.99
KYSE180; KYSE180, OESOPHAGUS, 7 days
  Anti-proliferation effect % Inh.: 68%
  Anti-proliferation effect Outcome: Cytostatic (cytostatic (IC50<1 μM and % inhibition <70%))
HUH28; [1]
  pIC50: 5.54
HUH28; HUH28, BILIARY, 7 days
  Anti-proliferation effect % Inh.: 32%
  Anti-proliferation effect Outcome: Insensitive (insensitive (IC50≥1 μM))
